Here are results for three molecules from patent US12564206B2, “Multi-supplement food-additive” (THE GOVERNING COUNCIL OF THE UNIVERSITY OF TORONTO, priority 2019, dated 2026).

Read-outs that look alike come from different tables or passages of the source.

The nature of data set [1]: Stability of folic acid and iodine in fortified salt on storage. The conditions noted are these: for micronutrient retained in quadruple fortified salt: 6 months storage at 25, 35 and 45 degrees C, 60-70% RH, all cases. The method, then:
However, for comparative study, a solution containing folic acid, iodine and vitamin B12 (spray solution 2 in Table 1) was also used. The solutions (2.5 mL) were sprayed on salt (1 kg) inside a ribbon blender and thoroughly mixed for 20 minutes. The salt samples were dried overnight. The dried salt was returned to the ribbon blender and mixed with premix samples for 2 minutes. Iron premix (i.e. particles containing iron without any B12 or other fortificants) and three of the four iron-B12 premixes were used (adding B12 to TiO2 was not further tested). The target concentrations of the fortificants were 1000 microgram/gram iron, 50 microgram/gram iodine, 25 microgram/gram folic acid and 0.25 microgram/gram vitamin B12.
The fortified salts were divided by solid sample splitter glassware into three portions. Each portion was stored at ambient conditions (25 degrees C.), 35 degrees C. and 60-70% RH, and 45 degrees C. and 60-70% RH. The stability of folic acid and iodine in the salt was monitored over a period of six months.
(§1) Folic Acid Analysis: For the spray solution, samples were diluted with 0.1 M Na2CO3 at ratio 1:1000 v/v and the absorbance of the resulting solution was read at 285 nm. For the salt samples, 5 g aliquots were dissolved in 0.1 M Na2CO3 (10 mL) in a falcon tube. The solution was mixed on a vortex mixer for 2 minutes and filtered with a 0.45 μm syringe filter. The absorbance of the filtrate was immediately read at 285 nm.
(§2) Iodine Analysis: Method 33.149, described by the Association of Official Analytical Chemists (AOAC), was used for iodine quantification in salt and spray solutions (Association of Official Analytical Chemists, 1984). In this method, iodate is reduced to iodine and titrated with sodium thiosulfate using a starch indicator.

A short description of data set [2]: Earlier double fortified salt, storage stability. The conditions noted are these: 5 month period, ambient conditions. Type of data set: physicochemical. From the text: Applicant has previously attempted to develop folic acid and iodine spray solutions to investigate the stability of triple fortified salt containing iodine, folic acid and microencapsulated ferrous fumarate.

Data set [3] is described as follows: Accelerated kinetic study of folic acid and iodine degradation in spray solution. The format is physicochemical. The conditions noted are these: for degradation constant in spray solution: first order; for activation energy for degradation in the solution: Arrhenius plot. The method, then: An accelerated kinetic study was conducted to evaluate the stability of the micronutrients in the premixes and solution. The stability of folic acid and iodine in the spray solution was evaluated, and the stability of B12 in the various premixes was evaluated. The solution and premix were stored at 50, 60, 70 and 80 degrees C. for 7 days. For the solution, samples (250 mL) were stored in 400 mL Fisherbrand Glass Bottles. About 1 mL of the samples were collected from the bottles at days 1, 3, 5 and 7, and stored at −20 degrees C. before analysis. For the premix, 1 g was weighed into aluminium weighing dishes. At days 1, 3, 5 and 7, samples were pulverized in a mortar and pestle. Vitamin B12 was extracted with 0.1 M Na2CO3. The crude extract was filtered (0.45 um) and stored at −20 degrees C. before analysis.

A short description of data set [4]: L*a*b* colour analysis of salt sprayed with folic acid. The format is physicochemical. The method, then: While this example was successful, it was observed that the addition of folic acid by spraying can impact the colour of the salt (i.e. a yellow color is observed), which may impact the acceptance of the salt. Accordingly, the inclusion of the folic acid in the premix was evaluated. […] The two other premix samples contained an iron micronutrient, folic acid, and vitamin B12; in one of these two, all of the micronutrients were in the core of the premix, while in the other, folic acid was separated from the iron micronutrient and vitamin B12 by a layer of TiO2.

For data set [5] the following is noted: cited from earlier work.
The nature of data set [6]: Stability of spray solutions on storage. The conditions noted are these: for retained in spray solution: after 2 months of storage. The method, then: Formulation and Storage of Spray Solution: Seven sets of spray solutions were formulated, containing folic acid, vitamin B12, iodine, sodium ascorbate, sodium citrate and/or sodium carbonate, as described in Table 1. The stability of the solutions was monitored for 2 months at 25, 35, and 45 degrees C.
as §1, §2
Vitamin B12 Analysis: The iron-B12 premix was pulverized with a mortar and pestle. The pulverized premix (5 g) was weighed into 50 mL falcon tube, and 10 mL of RO water was added and mixed with a vortex mixer for 2 minutes. This was centrifuged for 2 minutes. The supernatant was filtered with a 0.45 micron filter. Vitamin B12 in the filtrate was quantified using UHPLC-MS.

For data set [7] the following is noted: 30 min, 2 mg/mL.
Protocol: The effect of boiling on the stability of folic acid and vitamin B12 was assessed, in order to mimic food preparation. A known amount of folic acid (0.5 g) was weighed into 250 ml of boiling water. Boiling was continued for 30 minutes. At 1, 5, 10, 15, 20, 25, and 30 minutes, the solution was made up to 250 ml, and then 1 ml of the solution was measured out into a centrifuge vial. The same procedure was followed for B12.
The nature of data set [8]: Stability of vitamin B12 in iron-B12 premix on storage. Type of data set: physicochemical. The conditions noted are these: room temperature, six months; premix made by three approaches (core, spray, HPMC). From the text:
Production of Iron-B12 Premix: Given the instability of vitamin B12 in the spray solutions (as described below with respect to FIG. 4), vitamin B12 was removed from the spray solutions and incorporated into separate particles with the iron micronutrient, as a multi-supplement food-additive, described above (also referred to herein as an ‘iron-B12 premix’). For the iron-B12 premix, 25% TiO2 was used for color masking, and 5% HPMC and 5% soy stearin as the encapsulating coating. […] The stability of vitamin B12 in each iron-B12 premix was evaluated for six months.
This was centrifuged for 2 minutes.

The mark [9] stands for this setting: 12.5 microgram/gram folic acid in salt.
Where [10] appears, read: 25 microgram/gram folic acid in salt.

Consider `Nc1nc2ncc(CNc3ccc(C(=O)N[C@@H](CCC(=O)O)C(=O)O)cc3)nc2c(=O)[nH]1` [folic acid], for which the “micronutrient retained in quadruple fortified salt” value in data set [1] was 74-97%. For the same molecule, the “improvement of folic acid stability with vitamin B12 in core vs other parts of the premix” value in data set [1] (QFS, six months, all temperatures) is reported as 11-15%. For the same molecule, in data set [2], the “micronutrient retained in double fortified salt” value is 100%. In addition, the “degradation constant in spray solution” value in data set [3] (60 degrees C) stood at 0.0349 day⁻¹; in data set [3] (70 degrees C), 0.0411 day⁻¹; in data set [3] (80 degrees C) it was 0.0531 day⁻¹. The “activation energy for degradation in the solution” value in data set [3] stood at 4.924 kcal/mol. Besides, the “L* of salt” value in data set [4] (setting [9]) worked out at 95.43; in data set [4] (setting [10]), 94.27. Moreover, the “a* of salt” value is −1.53 in data set [4] (setting [9]) and −2.92 in data set [4] (setting [10]). Also, the “b* of salt” value in data set [4] (setting [9]) is recorded as 8.44; in data set [4] (setting [10]), 13.50. Further, the solubility in water entry in data set [5] was “sparingly soluble”. The stability in solution entry in data set [6] is “very stable”. The “retained in spray solution” value in data set [6] is listed as roughly 80%. Besides, the retained after boiling entry in data set [7] is on record as “About 93%”.
With vitamin B12, the solubility in water entry in data set [5] was “very soluble”. In data set [8], the “B12 retained in iron-B12 premix” value was “over 97%”. Also, the stability in solution entry in data set [6] is “very stable”. The “vitamin B12 lost in spray solution” value in data set [6] (spray solution at lower pH (8), 2 months storage) is greater than 50%; in data set [6] (spray solution pH 9, 2 months storage at 45 degrees C and 70% RH) it was roughly 100%.
Take `II` [iodine, potassium iodate]: the “micronutrient retained in quadruple fortified salt” value in data set [1] is 85-100%. Moreover, in data set [1] (QFS, 45 degrees C, six months), the “improvement of iodine stability with vitamin B12 in core vs other parts of the premix” value is given as 6-15%. The “micronutrient retained in double fortified salt” value in data set [2] came to 100%. Besides, the figures for the “degradation constant in spray solution” value in data set [3] (60 degrees C), in data set [3] (70 degrees C) and in data set [3] (80 degrees C) were 0.0337 day⁻¹, 0.0432 day⁻¹ and 0.0568 day⁻¹, respectively. In addition, the “activation energy for degradation in the solution” value in data set [3] was found to be 6.092 kcal/mol. Also, the “retained in spray solution” value in data set [6] was “about 90%”. The stability in solution result in data set [6] (the spray solutions (FIG. 4)) was “very stable”.
